Measured values from ChEMBL document CHEMBL1201862, “PubChem BioAssay data set” (2004).
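Values below derive from 48-hour exposures of cells grown in 96-well plates, with endpoints linearly interpolated between the two concentrations bracketing the appropriate inhibition level. GI50 = concentration required for 50% inhibition of growth.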 Active and inactive are the calls of the source. Rule as the data show it: active = GI50 up to about 1.1 µM and inactive = higher.

Experiments:
Assay in all cases: NCI tumour cell line growth inhibition, 48 h
HT-29 = test system: HT-29
MOLT-4 = test system: MOLT-4
PC-3 = test system: PC-3
NCI/ADR-RES = test system: NCI/ADR-RES
Hs-578T = test system: Hs-578T
BT-549 = test system: BT-549
MDA-MB-231 = test system: MDA-MB-231
OVCAR-8 = test system: OVCAR-8
SNB-19 = test system: SNB-19
ACHN = test system: ACHN
K562 = test system: K562
MDA-N = test system: MDA-N
NCI-H226 = test system: NCI-H226
NCI-H23 = test system: NCI-H23
HCT-15 = test system: HCT-15
SF-268 = test system: SF-268
HCT-116 = test system: HCT-116
786-0 = test system: 786-0
HOP-62 = test system: HOP-62
DMS-114 = test system: DMS-114

Compound | GI50 (HT-29) | GI50 (MOLT-4) | GI50 (PC-3) | GI50 (NCI/ADR-RES) | GI50 (Hs-578T) | GI50 (BT-549) | GI50 (MDA-MB-231) | GI50 (OVCAR-8) | GI50 (SNB-19) | GI50 (ACHN) | GI50 (K562) | GI50 (MDA-N) | GI50 (NCI-H226) | GI50 (NCI-H23) | GI50 (HCT-15) [µM] | GI50 (SF-268) | GI50 (HCT-116) | GI50 (786-0) | GI50 (HOP-62) | GI50 (DMS-114)
ON(CCc1ccccn1)Cc1ccccc1 | > 100 µM (inactive) | > 100 µM (inactive) | > 100 µM (inactive) | > 100 µM (inactive) | > 100 µM (inactive) | > 100 µM (inactive) | > 100 µM (inactive) | > 100 µM (inactive) | > 100 µM (inactive) | > 100 µM (inactive) | 31.7 µM (inactive) | > 100 µM (inactive) | > 100 µM (inactive) | > 100 µM (inactive) | > 100 | > 100 µM (inactive) | > 100 µM (inactive) | > 100 µM (inactive) | > 100 µM (inactive) | –
Cc1ccc(S(=O)(=O)NC2(C=O)CCCC3CCCCC32)cc1 (configuration not stated) | – | > 100 µM (inactive) | – | – | – | – | – | > 100 µM (inactive) | > 100 µM (inactive) | > 100 µM (inactive) | > 100 µM (inactive) | – | > 100 µM (inactive) | – | > 100 | > 100 µM (inactive) | > 100 µM (inactive) | > 100 µM (inactive) | > 100 µM (inactive) | > 100 µM (inactive)
CCOC(=O)/C(=C/c1ccc(N(C)C)cc1)N(CC)CC | – | 32.2 µM (inactive) | – | – | – | – | – | > 100 µM (inactive) | > 100 µM (inactive) | 76.2 µM (inactive) | 22.5 µM (inactive) | – | 21.1 µM (inactive) | 49.4 µM (inactive) | 40.3 | 76.6 µM (inactive) | 48.1 µM (inactive) | > 100 µM (inactive) | > 100 µM (inactive) | 54 µM (inactive)
O=C1NC(=O)C(C(=O)C(=O)Nc2cc(Cl)ccc2Cl)C(=O)N1 | – | > 100 µM (inactive) | – | – | – | – | – | > 100 µM (inactive) | > 100 µM (inactive) | > 100 µM (inactive) | > 100 µM (inactive) | – | – | > 100 µM (inactive) | > 100 | > 100 µM (inactive) | > 100 µM (inactive) | > 100 µM (inactive) | > 100 µM (inactive) | > 100 µM (inactive)
N#CC(C#N)=C1C(C#N)=C(N)NC12OCCO2 | > 100 µM (inactive) | > 100 µM (inactive) | > 100 µM (inactive) | > 100 µM (inactive) | > 100 µM (inactive) | > 100 µM (inactive) | > 100 µM (inactive) | > 100 µM (inactive) | > 100 µM (inactive) | > 100 µM (inactive) | > 100 µM (inactive) | > 100 µM (inactive) | > 100 µM (inactive) | > 100 µM (inactive) | > 100 | > 100 µM (inactive) | > 100 µM (inactive) | > 100 µM (inactive) | > 100 µM (inactive) | –
O=C1C(=O)c2c(oc(=O)c3ccccc23)-c2ccccc21 | 17.5 µM (inactive) | > 25 µM (inactive) | > 25 µM (inactive) | 22.9 µM (inactive) | > 25 µM (inactive) | 11.7 µM (inactive) | > 25 µM (inactive) | 16.4 µM (inactive) | > 25 µM (inactive) | > 25 µM (inactive) | > 25 µM (inactive) | 24.4 µM (inactive) | > 25 µM (inactive) | 18 µM (inactive) | 17.6 | > 25 µM (inactive) | 11 µM (inactive) | > 25 µM (inactive) | > 25 µM (inactive) | –
C=C(C)OCOCCOC | > 100 µM (inactive) | > 100 µM (inactive) | > 100 µM (inactive) | > 100 µM (inactive) | > 100 µM (inactive) | > 100 µM (inactive) | > 100 µM (inactive) | > 100 µM (inactive) | > 100 µM (inactive) | > 100 µM (inactive) | > 100 µM (inactive) | > 100 µM (inactive) | > 100 µM (inactive) | > 100 µM (inactive) | > 100 | > 100 µM (inactive) | > 100 µM (inactive) | > 100 µM (inactive) | > 100 µM (inactive) | –
COc1cc(/N=C\N(C)C)c2ncccc2c1 | 69.8 µM (inactive) | 35.7 µM (inactive) | 90.6 µM (inactive) | 45.4 µM (inactive) | 98.4 µM (inactive) | 37.1 µM (inactive) | 35.2 µM (inactive) | 51.8 µM (inactive) | > 100 µM (inactive) | > 100 µM (inactive) | 15.8 µM (inactive) | 20.4 µM (inactive) | 49.4 µM (inactive) | > 100 µM (inactive) | 38.1 | 66.1 µM (inactive) | 35.2 µM (inactive) | 81.3 µM (inactive) | > 100 µM (inactive) | –
COC(=O)C1=C(C)N(NC(=O)Nc2ccccc2)C2(N)N(NC(=O)Nc3ccccc3)C(C)=C(C(=O)OC)C12C(=O)OC (configuration not stated) | 65.2 µM (inactive) | 27.1 µM (inactive) | – | – | – | – | – | 71 µM (inactive) | – | 98.2 µM (inactive) | 51.9 µM (inactive) | – | 60.4 µM (inactive) | > 100 µM (inactive) | 76.4 | > 100 µM (inactive) | > 100 µM (inactive) | 66.7 µM (inactive) | – | 77.1 µM (inactive)
CN(C)c1ccc(C2SCC(=O)N2c2nc3cc4sc(N5C(=O)CSC5c5ccc(N(C)C)cc5)nc4cc3s2)cc1 (configuration not stated) | 17 µM (inactive) | 3.37 µM (inactive) | 38.1 µM (inactive) | > 23.3 µM (inactive) | 47.2 µM (inactive) | 22.9 µM (inactive) | > 51.8 µM (inactive) | > 70.5 µM (inactive) | 41.4 µM (inactive) | 28.1 µM (inactive) | 40.9 µM (inactive) | 45.2 µM (inactive) | 7.62 µM (inactive) | 11.4 µM (inactive) | 8.87 | 75.7 µM (inactive) | 16 µM (inactive) | > 100 µM (inactive) | 56.6 µM (inactive) | –
CC(=O)Nc1ccc(C2C(C(=O)Nc3ccccc3C)=C(C)NC(C)=C2C(=O)Nc2ccccc2C)cc1 | > 100 µM (inactive) | – | – | – | – | – | – | > 92 µM (inactive) | > 100 µM (inactive) | > 100 µM (inactive) | 57.5 µM (inactive) | – | > 100 µM (inactive) | > 100 µM (inactive) | > 100 | > 100 µM (inactive) | > 100 µM (inactive) | > 100 µM (inactive) | > 100 µM (inactive) | > 100 µM (inactive)
O=C1c2ccccc2C(=O)N1CCN(CCN1C(=O)c2ccccc2C1=O)Cn1cccn1 | – | > 100 µM (inactive) | – | – | – | – | – | > 100 µM (inactive) | > 100 µM (inactive) | > 100 µM (inactive) | 33.4 µM (inactive) | – | – | – | > 100 | > 100 µM (inactive) | 17.8 µM (inactive) | > 100 µM (inactive) | > 100 µM (inactive) | 19.5 µM (inactive)
CCOC(=O)C(Cl)(NC(=O)c1c(F)c(F)c(F)c(F)c1F)C(F)(F)F (configuration not stated) | > 100 µM (inactive) | > 100 µM (inactive) | > 100 µM (inactive) | > 100 µM (inactive) | > 100 µM (inactive) | > 100 µM (inactive) | > 100 µM (inactive) | > 100 µM (inactive) | > 100 µM (inactive) | > 100 µM (inactive) | > 100 µM (inactive) | > 100 µM (inactive) | > 100 µM (inactive) | > 100 µM (inactive) | > 100 | > 100 µM (inactive) | > 100 µM (inactive) | > 100 µM (inactive) | > 100 µM (inactive) | –
CCc1c(-c2coc(CC/C(C)=C/c3ccccc3)n2)oc(OC)c(C)c1=O | 24.8 µM (inactive) | 10.9 µM (inactive) | – | – | – | – | – | 19.9 µM (inactive) | 23.1 µM (inactive) | 22.5 µM (inactive) | 0.122 µM (active) | – | 68.2 µM (inactive) | – | 18.7 | > 100 µM (inactive) | 19 µM (inactive) | 18.1 µM (inactive) | > 40 µM (inactive) | < 0.01 µM (active)
c1ccc2[nH]c3[nH]c4[nH]c5ccccc5[nH]c4[nH]c3[nH]c2c1 | > 100 µM (inactive) | > 100 µM (inactive) | > 100 µM (inactive) | > 100 µM (inactive) | 60.7 µM (inactive) | > 100 µM (inactive) | > 100 µM (inactive) | > 100 µM (inactive) | > 100 µM (inactive) | > 100 µM (inactive) | > 100 µM (inactive) | > 100 µM (inactive) | > 100 µM (inactive) | > 100 µM (inactive) | > 100 | > 100 µM (inactive) | > 100 µM (inactive) | > 100 µM (inactive) | > 100 µM (inactive) | –
CC(C)/C(=N\[N+](C)(C)C)c1ccccc1 | > 100 µM (inactive) | > 100 µM (inactive) | > 100 µM (inactive) | > 100 µM (inactive) | > 100 µM (inactive) | > 100 µM (inactive) | > 100 µM (inactive) | > 100 µM (inactive) | > 100 µM (inactive) | > 100 µM (inactive) | > 100 µM (inactive) | > 100 µM (inactive) | > 100 µM (inactive) | > 100 µM (inactive) | > 100 | > 100 µM (inactive) | > 100 µM (inactive) | > 100 µM (inactive) | > 100 µM (inactive) | –
COC(=O)C1[C@@H](C(=O)OC)C12C=Cc1ccccc1C=C2 (some centres not stated) | – | > 100 µM (inactive) | – | – | – | – | – | > 100 µM (inactive) | > 100 µM (inactive) | > 100 µM (inactive) | > 100 µM (inactive) | – | – | > 100 µM (inactive) | > 100 | > 100 µM (inactive) | > 100 µM (inactive) | > 100 µM (inactive) | > 100 µM (inactive) | > 100 µM (inactive)
CC1C=C[C@H](Sc2ccccc2)CC[C@@]1(C)O (some centres not stated) | > 100 µM (inactive) | 35.1 µM (inactive) | – | – | – | – | – | > 100 µM (inactive) | 89.9 µM (inactive) | > 100 µM (inactive) | 67.5 µM (inactive) | – | > 100 µM (inactive) | 70.5 µM (inactive) | > 100 | – | 97.3 µM (inactive) | > 100 µM (inactive) | > 100 µM (inactive) | 55.8 µM (inactive)
